Assay results reported in ChEMBL document CHEMBL6178006, “Novel Spirocyclic WRN Helicase Inhibitors for Treating Cancer” (ACS Med Chem Lett, 2025).

Target: Bifunctional 3'-5' exonuclease/ATP-dependent helicase WRN (Homo sapiens, UniProt Q14191)
Test: Inhibition of WRN helicase (500 to 942 residues)(unknown origin) using fluor/quencher-labeled forked double-stranded DNA substrate assessed as decrease in helicase unwinding activity preincubated for 1 hr followed by substrate addition measured after 1 hr in presence of ATP by fluorescence based assay

Sequence of Bifunctional 3'-5' exonuclease/ATP-dependent helicase WRN (Q14191 whole entry, the tested form may be a part): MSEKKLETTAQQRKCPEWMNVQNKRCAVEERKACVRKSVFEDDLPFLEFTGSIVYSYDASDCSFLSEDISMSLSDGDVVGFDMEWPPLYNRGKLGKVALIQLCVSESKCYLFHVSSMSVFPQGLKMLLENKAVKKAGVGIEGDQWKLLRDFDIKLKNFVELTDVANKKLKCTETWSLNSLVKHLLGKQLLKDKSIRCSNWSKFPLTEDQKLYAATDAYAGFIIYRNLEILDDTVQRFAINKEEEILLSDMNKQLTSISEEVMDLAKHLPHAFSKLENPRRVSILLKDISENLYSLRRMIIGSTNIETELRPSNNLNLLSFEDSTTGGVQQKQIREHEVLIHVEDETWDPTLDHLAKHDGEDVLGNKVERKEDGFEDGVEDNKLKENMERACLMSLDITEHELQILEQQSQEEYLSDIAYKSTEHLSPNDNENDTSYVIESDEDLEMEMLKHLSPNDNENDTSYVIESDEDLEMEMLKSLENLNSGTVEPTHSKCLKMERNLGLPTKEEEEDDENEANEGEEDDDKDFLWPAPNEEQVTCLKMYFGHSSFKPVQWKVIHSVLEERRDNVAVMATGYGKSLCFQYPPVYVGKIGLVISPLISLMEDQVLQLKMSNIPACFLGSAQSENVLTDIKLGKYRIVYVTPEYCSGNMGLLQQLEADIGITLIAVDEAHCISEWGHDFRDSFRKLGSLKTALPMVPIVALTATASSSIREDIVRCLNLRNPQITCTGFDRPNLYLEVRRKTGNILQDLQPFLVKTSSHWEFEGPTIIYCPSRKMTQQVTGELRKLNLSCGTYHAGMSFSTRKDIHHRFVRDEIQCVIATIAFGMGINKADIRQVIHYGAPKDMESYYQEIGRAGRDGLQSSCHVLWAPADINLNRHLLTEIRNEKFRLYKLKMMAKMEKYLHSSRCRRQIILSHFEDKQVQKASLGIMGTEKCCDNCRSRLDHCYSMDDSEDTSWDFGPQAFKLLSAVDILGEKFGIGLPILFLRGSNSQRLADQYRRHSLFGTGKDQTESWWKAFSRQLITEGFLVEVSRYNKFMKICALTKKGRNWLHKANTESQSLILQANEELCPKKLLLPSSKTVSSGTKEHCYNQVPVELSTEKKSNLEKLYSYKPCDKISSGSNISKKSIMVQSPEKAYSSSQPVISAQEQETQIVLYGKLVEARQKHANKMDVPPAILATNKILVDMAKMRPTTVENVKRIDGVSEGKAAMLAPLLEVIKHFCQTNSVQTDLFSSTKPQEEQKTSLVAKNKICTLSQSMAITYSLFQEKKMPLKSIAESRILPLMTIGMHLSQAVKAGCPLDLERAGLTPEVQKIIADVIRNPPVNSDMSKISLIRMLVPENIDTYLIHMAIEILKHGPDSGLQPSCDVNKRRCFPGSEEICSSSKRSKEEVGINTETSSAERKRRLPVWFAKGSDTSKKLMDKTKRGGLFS

SMILES	IC50 [nM]
CC1CC2(CCN(C(=O)c3ncccc3O)CC2)c2c1n(CC(=O)Nc1ccc(C(F)(F)F)cc1)c1nc(C3=CCOCC3)nn1c2=O (configuration not stated)	1.9
CC(=O)N1CC=C(c2nc3n(CC(=O)Nc4ccc(C(F)(F)F)cc4Cl)c4c(c(=O)n3n2)C2(CCN(C(=O)c3ncccc3O)CC2)CC4C)CC1 (configuration not stated)	2
